# Source: patent US20240287148A1, “ENGINEERED BIOMOLECULES FOR NUTRIENT REPROGRAMMING” (CORNELL UNIVERSITY, priority 2021, published 2024)
# Where a SMILES comes first, the peptide text is derived from it. The star is where a group is joined. Cbz = O=C(OCc1ccccc1)*; CH2F = FC*
# Legend:
# ATF4 = ATF4 expression in MEF cells (western blotting, RT-qPCR of Atf4); type: cell-based, mouse; details: for ATF4 induction in cystine-starved cells: cystine deprivation
# Description: For cystine and methionine deprivation, the experiment was carried out by incubating cells in DMEM, high glucose, no glutamine, no methionine, no cystine (Thermo Fisher: 21013024) with 10% dialyzed FBS (Sigma Aldrich: F0392). For leucine, histidine, and arginine deprivation, the experiment was carried out by incubating cells in DMEM, high glucose, no arginine, no histidine, no leucine, respectively, (custom prepared by Gibco/Invitrogen) with 10% dialyzed FBS (Sigma Aldrich: F0392). For full amino acid starvation, the experiment was carried out by incubating cells in HBSS buffer (Lonza) with 10% dialyzed FBS (Sigma Aldrich: F0392). Samples were collected at indicated experimental time points.
# Following experimental conditions, total RNA was isolated by TRIzol reagent (Invitrogen) and reverse transcription was performed using High-Capacity cDNA Reverse Transcription Kit (Invitrogen). Real-time PCR analysis was conducted using Power SYBR Green PCR Master Mix (Applied Biosystems) and data was generated using a LightCycler 480 Real-Time PCR System (Roche Applied Science). qPCR oligo sequences are listed in Table 4.
# (§1) Cells were washed with PBS (Gibco) and then lysed on ice using cell lysis buffer (50 mM Tris [pH7.5], 150 mM NaCl, 1 mM EDTA, 1% Triton X-100, 2 U/ml DNase and protease inhibitor cocktail tablet). The lysates were incubated on ice for 30 min and spun down at 10,000 rpm for 3 mins to collect supernatant. Collected supernatant was measured by protein assay (Bio-Rad: 500-0112) to quantify the protein concentration. Equal amounts of proteins across samples were mixed with SDS-PAGE sample buffer (50 mM Tris [pH6.8], 100 mM dithiothreitol, 2% SDS, 0.1% bromophenol blue, 10% glycerol) and heated for 9 mins at 95° C. Denatured proteins were separated on SDS-PAGE and transferred to PVDF membranes (Fisher). Membranes were blocked in TBS containing 5% non-fat milk and 0.1% Tween-20 for 1 hr. Phospho-proteins were blocked in TBS containing 5% BSA and 0.1% Tween-20 for 1 hr. Blocking was followed by incubation with primary antibodies overnight at 4° C. Membranes were washed using TBST followed by subsequent incubation using horseradish peroxidase-coupled secondary antibodies at room temperature for 1 hr. Immunoblots were washed again using TBST and visualized using enhanced chemiluminescence (ECL-Plus, GE Healthcare).
# NRF2 = assay: ARE-driven Fluc reporter assay (NRF2 activity) in MEF cells; type: cell-based, mouse; details: cystine starvation 8 hr, BafilomycinA 50 nM or ConcanamycinA 100 nM
# Description: (§2) Firefly luciferase reporters were co-transfected with a Renilla reporter plasmid into MEF cells or CTNS knockdown cells for 4 hrs. Transfected cells were treated with amino acid starvation and/or compound treatment at indicated timepoints. Firefly and Renilla luciferase activities were measured using Dual-Luciferase Reporter Assay System (Promega). Relative values of firefly luciferase activities were normalized to Renilla luciferase control.
# MEF cells [1] = assay: Lipid peroxidation measurement (C11-BODIPY, flow cytometry) in MEF cells; type: cell-based, mouse; details: for lipid oxidation in cystine-starved cells (C11-BODIPY): cystine deprivation 18 hrs, BafA1 50 nM or ConA
# Description: Cells were plated in 6-well dishes and followed by indicated treatments. After treatment, cells were incubated with fresh medium containing 2 μM BODIPY 581/591 C11 dye (Invitrogen: D3861) for 15 min. Cells were next collected and washed twice with ice-cold PBS followed by fluorescence-activated cell sorting (FACS) analysis using Thermo Fisher Attune NxT. Fluorescence captured during analysis was gated and plotted using FCS Express 7.
# MEF cells [2] = assay: Cell fractionation and western blotting of MEF cells transfected with CysRx; type: cell-based, mouse; details: BafilomycinA 50 nM for 12 hrs
# Description: as §1
# MEF cells were grown in four 15 cm dishes until 80% confluent (˜3×10^8 cells) followed by washing twice with ice-cold PBS. […]
# MEF cells [3] = assay: Cell viability assay (ferroptosis) in MEF cells; type: cell-based, mouse; details: for cell death under cystine restriction (cell viability): Necrostatin 5 μM, Ferrostatin 1 μM
# Description: Cells were seeded into 96-well plates at 3,000 cells per well. After 16 hr, cells were subject to conditions of the indicated experiments. Cells were incubated for 24 hr in their experimental conditions and cell viability was measured using the CellTiter-Blue viability assay (Promega) following the manufacturer's instructions. Relative cell viability in the presence of starvation and/or compounds was normalized to the vehicle-treated controls after background subtraction.
# Atf4 promoter = assay: Atf4 promoter-driven Fluc reporter assay in MEF cells; type: cell-based, mouse; details: BafilomycinA 50 nM 8 hrs with or without cystine deprivation
# Description: as §2
# MEF cells [4] = assay: Intracellular cysteine and cystine measurement in MEF cells (HPLC); type: cell-based, mouse
# Description: Cells were grown on 100 mm dishes until 80-90% confluent. Cells were lysed on ice in lysis buffer (50 mM Tris [pH7.5], 150 mM NaCl, 1 mM EDTA, 1% Triton X-100, 2 U/ml DNase and protease inhibitor cocktail tablet), followed by centrifugation at 10,000 rpm for 8 min at 4° C. The supernatant was collected and 100 μL of sample was mixed with 10 μL TCEP (50 mM in borate buffer [pH 7.4]) (Sigma Aldrich) in a vial and incubated at 25° C. for 10 min.
# 90 μL of a solution containing 1% TCA and 1 mM EDTA was then added. The total solution was centrifuged for 10 min at 10,000 g at 4° C. 100 μL of the obtained supernatant, 20 μL of 10 mM CNBF solution (4-chloro-3,5-dinitrobenzotrifluoride [Sigma Aldrich: 197017]), 20 μL of methanol, and 50 μL of borate buffer (0.2 M [pH 8.0])) were mixed and incubated at 25° C. for 20 min. Derivatization was terminated with 10 μL of 2M HCl followed by HPLC analysis (see below).
# Cells were grown on 100 mm dishes until 80-90% confluent. Cells were lysed on ice in lysis buffer (50 mM Tris [pH7.5], 150 mM NaCl, 1 mM EDTA, 1% Triton X-100, 2 U/ml DNase and protease inhibitor cocktail tablet). 100 μL of sample was mixed with 100 μL of 6%5-Sulfosalicylic Acid Dyhydrate solution (Sigma: S3147), followed by centrifugation at 3,000 g for 15 min at 4° C. The supernatant was collected and 25 μL of freshly made derivatizing solution was added. Samples sat at room temperature for 20 mins, followed by rotary evaporation. Dried material was dissolved in 150 μL of phase A solution followed by HPLC analysis (see below).
# All resulting solutions for cysteine, glutathione, and cystine were filtered through a 0.22 μm filter membrane (Millipore Corporation, Belfast, MA, USA) and injected into a chromatographic system. High performance liquid chromatography (HPLC) was performed using a LC-20AT pump with a SPD-20AV UV-vis detector monitored at 270 and 220 nm (Shimadzu, Japan) equip with an Ultra Aqueous C18 column (100 Å, 5 μm, 250 mm×4.6 mm; Restek, USA) at a flow rate of 1 mL/min with a mobile phase containing 0.1% trifluoroacetic acid (TFA) in H2O or acetonitrile. Values were normalized to protein concentration by Bradford assay.
# UMRC6 tumors = assay: CysRx treatment of xenografted UMRC6 tumors in mice (tumor growth); type: in vivo, mouse; details: IKE 10 mg/kg intraperitoneal every other day, 25 days
# Description: (§3) Previously established UMRC6 tumors were immediately excised from CO2 euthanized mice and minced using a surgical 10 blade. Approximately […] portions of tumor were bilaterally implanted into 6-8-week-old NSG mice. Animals were monitored for tumor growth and randomized into treatment groups when tumors reached 150-200 mm^3 in size. IKE/vehicle treated animals received intraperitoneal injections every other day (10 mg/kg). CysRx-TT3 treatment was conducted via weekly intratumoral (IT) injections (100 μL) for three weeks. Tumors for IT injections were demarcated into four quadrants and an equal volume (25 μL) of CysRx-TT3 was injected into each quadrant. HiBit-TT3 was injected into the other flank as control. Mice were monitored for tumor growth three times per week using digital calipers. Health and body condition were also monitored concurrently. Animals were sacrificed by CO2 euthanasia (3.5 L/min) one week after final administration or when the body condition started to deteriorate. Tumors were excised from the flank using a surgical 10 blade, weighed and either flash frozen or fixed in 4% PFA.
# Magnetic resonance imaging (MRI) of mice was conducted using a 1T M3 compact MRI from Aspect Imaging Ltd. Mice were anesthetized using 2.5% isoflurane and placed onto the specimen arm, coil was then placed around the subject and fixed in place. […]
# [5] = Body weight of tumor-bearing mice; type: in vivo, mouse; details: mice with UMRC6 tumors; IKE 10 mg/kg/2d intraperitoneal; CysRx-TT3 intratumoral
# Description: as §3
# [6] = MEF cells, cystine deprivation 24 hrs, BafilomycinA 50 nM or ConcanamycinA 100 nM
# [7] = BafilomycinA 50 nM for 12 hrs, normalized to protein
# [8] = MEF cells, 24 hrs cystine deprivation, Z-VAD 20 μM
smiles,measurement,setting,value
"CCCCS(=N)(=O)CCC(N)C(=O)O (stereo not drawn) [BSO, buthionine sulfoximine]",ATF4 expression,"ATF4; MEF cells, BSO 10 μM, 8 hrs",induced
"CO/C1=C\C(C)=C\[C@@H](C)[C@@H](O)[C@@H](C)C/C(C)=C/C=C/[C@H](OC)[C@@H]([C@@H](C)[C@@H](O)[C@H](C)[C@@]2(O)C[C@@H](O)[C@H](C)[C@@H](C(C)C)O2)OC1=O [BafA1, bafilomycin A1]",NRF2 activation (ARE Fluc reporter),NRF2,prevented
same,ATF4 induction in cystine-starved cells,"ATF4; MEF cells, BafilomycinA 50 nM 8 hrs, ConcanamycinA 100 nM 12 hrs",greatly potentiated
same,lipid oxidation in cystine-starved cells (C11-BODIPY),MEF cells [1],significantly reduced
same,CysRx level (western blotting),MEF cells [2],CysRx accumulation
same,ferroptosis in cystine-starved cells (cell viability),MEF cells [3]; [6],prevented
same,Atf4 promoter-driven Fluc activity (normalized to Renilla),Atf4 promoter,transcriptional upregulation
same,cysteine level,MEF cells [4]; [7],increase
same,cystine level,MEF cells [4]; [7],decrease
same,cytosolic cysteine level in cystine-starved cells,"MEF cells [4]; cystine deprivation, BafilomycinA 50 nM 12 hrs",partially restored
"C/C=C/[C@H]1O[C@@](O)([C@@H](C)[C@H](O)[C@H](C)[C@H]2OC(=O)/C(OC)=C/C(C)=C/[C@@H](C)[C@@H](O)[C@@H](CC)[C@@H](O)[C@H](C)C/C(C)=C/C=C/[C@@H]2OC)C[C@@H](O[C@H]2C[C@@H](O)[C@H](OC(N)=O)[C@@H](C)O2)[C@@H]1C [ConA, concanamycin A]",NRF2 activation (ARE Fluc reporter),NRF2,prevented
same,lipid oxidation in cystine-starved cells (C11-BODIPY),MEF cells [1],significantly reduced
same,ferroptosis in cystine-starved cells (cell viability),MEF cells [3]; [6],prevented
"CC(C)Oc1ccc(C(=O)Cn2ccnc2)cc1-n1c(CN2CCN(C(=O)COc3ccc(Cl)cc3)CC2)nc2ccccc2c1=O [IKE, imidazole ketone erastin]",tumor growth,UMRC6 tumors,suppressed
same,body weight,[5],weight loss
O=C(COc1ccc(Cl)cc1)NC1CCC(NC(=O)COc2ccc(Cl)cc2)CC1 (stereo not drawn) [ISRIB],cystine shortage-induced ATF4 upregulation (western blotting),"ATF4; eIF2a(S/S) and eIF2a(A/A) MEF cells, 8 hrs amino acid starvation, ISRIB 100 nM",insensitive
CC(C)n1cnc2c(NCCc3ccc(O)cc3)nc(-c3csc4ccccc34)nc21 [SR1],ATF4 induction in cystine-starved cells,"ATF4; MEF cells, SR1 200 nM or Indirubin 2 μM",significantly reduced
same,ferroptosis of cystine-starved cells (cell viability),"MEF cells [3]; MEF cells, cystine deprivation 24 hrs, SR1 200 nM or Indirubin 2 μM",promoted
COC(=O)C[C@H](NC(=O)[C@H](C)NC(=O)[C@@H](NC(=O)OCc1ccccc1)C(C)C)C(=O)CF [Z-VAD] (Cbz-Val-Ala-Asp(OMe)-CH2F),cell death under cystine restriction (cell viability),MEF cells [3]; [8],not
same,reduced cell viability under full amino acid starvation,"MEF cells [3]; MEF cells, 24 hrs full amino acid starvation, Z-VAD 20 μM",rescued
O=C1O[C@H]([C@@H](O)CO)C(O)=C1O [ascorbic acid],ATF4 induction upon cystine starvation,"ATF4; MEF cells, 8 hrs cystine starvation, Ascorbic Acid 20 μM",little effects
same,ATF4 expression induced by homocysteic acid (HCA),"ATF4; MEF cells, HCA 10 mM, Ascorbic Acid 20 μM",attenuated
C[C@@H]1C[C@@H]([C@H](O)CC2CC(=O)NC(=O)C2)C(=O)[C@@H](C)C1 [cycloheximide],ferroptosis induced by erastin and sulfasalazine (cell viability),"MEF cells [3]; MEF cells, 24 hrs Erastin 20 μM or Sulfsalazine 200 μM, Cycloheximide 50 μM",partially rescued
same,"increased ferroptosis susceptibility under cystine deprivation (cell viability, lipid ROS)","MEF cells [3]; MEF cells, 24 hrs cystine deprivation, Cycloheximide 50 μM",prevented
same,intracellular cyst(e)ine levels,"MEF cells [4]; 12 hrs amino acid starvation, Cycloheximide 50 μM",largely restored
NCCS [cysteamine],ATF4 induction under the cystine rich condition,"ATF4; MEF cells, Cysteamine 0.5 mM, 12 hrs",pronounced ATF4 induction
same,lipid oxidation in cystine-starved cells,"MEF cells [1]; cystine deprivation, Cysteamine 0.5 mM for 18 hrs",eliminated
same,ferroptotic cell death of cells lacking cystinosin,"MEF cells [3]; MEF cells with CTNS knockdown, 24 hrs cystine deprivation, Cysteamine 0.5 mM",rescued
same,ferroptosis in cystine-starved cells (cell viability),"MEF cells [3]; MEF cells, cystine deprivation, Cysteamine 0.5 mM for 24 hrs",rescued
same,cysteine in the cytosol,"MEF cells [4]; Cysteamine 0.5 mM, 12 hrs",increase
same,lysosomal cystine level,"MEF cells [4]; Cysteamine 0.5 mM, 12 hrs",readily depleted
CCOC(=O)c1ccc(NC2CCCCC2)c(N)c1 [ferrostatin-1],cell death under cystine restriction (cell viability),MEF cells [3]; [8],prevented
N[C@@H](CCS(=O)(=O)O)C(=O)O [homocysteic acid],ATF4 expression,"ATF4; MEF cells, HCA 10 mM",induced
"CN1C(=O)C(Cc2c[nH]c3ccccc23)NC1=S (stereo not drawn) [necrostatin, necrostatin-1]",cell death under cystine restriction (cell viability),MEF cells [3]; [8],not
O=C(O)c1cc(/N=N/c2ccc(S(=O)(=O)Nc3ccccn3)cc2)ccc1O [sulfasalazine],susceptibility of cells lacking cystinosin (cell viability),"MEF cells [3]; MEF cells with CTNS knockdown, Erastin 20 μM, Sulfsalazine 200 μM",highly susceptible
same,ferroptosis (cell viability),"MEF cells [3]; MEF cells, 24 hrs, Erastin 20 μM, Sulfsalazine 200 μM",induced
